Where two headings read alike, the source gives them in different places.
What was measured:
adult schistosome worms = test: Schistosome mobility assay ex vivo; type: cell-based, S. mansoni
Experimental: Adult schistosomes were harvested from the mesenteric vasculature of female Swiss Webster mice previously infected (~49 days earlier) with S. mansoni cercariae (NMRI strain) by the Schistosomiasis Resource Center at the Biomedical Research Institute (BRI, Rockville, MD). Harvested schistosomes were washed in RPMI 1640 supplemented with 5% heat inactivated FBS (Gibco), HEPES (25 mM) and penicillin-streptomycin (100 units/mL). After isolation, worms were incubated overnight (37°C/5% CO2) in vented petri dishes (100x25 mm). Movement assays were performed using male and female worms in six well dishes (~5 individual worms/3ml media per well). Video recordings of worm motility (4 frames/sec) were captured using a Zeiss Discovery v20 stereomicroscope coupled to a QiCAM 12-bit cooled color CCD camera controlled by Metamorph imaging software.

[1] = tested on: untransfected HEK293 cells; test: Counterscreen, antagonist mode, Ca2+ signal in untransfected HEK cells; type: cell-based; details: counterscreen titration; for EC50: Homo sapiens, HEK293, unit inferred, read-out: HEK ANT Final EC50
Experimental: (§1) HEK cells were transfected with cDNA (400μg/ml DNA) encoding Sm.TRPMPZQ using a Maxcyte STX electroporation system and incubated overnight at 37°C. This system is uniquely capabable of large scale transfections providing one batch of cells ready for large scale HTS [30]. Briefly, the HEK cells were resuspended at 10^8/ml in Maxcyte electroporation buffer. Plasmid DNA was added to the cells in buffer to achieve a concentration of 400 μg/ml from a stock of 5mg/ml (in TE buffer). This mixture was loaded into the appropriate cassette, inserted into the machine, and cells electroporated. Cells were then frozen to provide a single supply of transfected cells for all subsequent assays. On the day of the assays, cells were thawed in a 37°C waterbath, and resuspended in DMEM + 10% FBS and counted. The cells were pelleted by centrifugation at 170xg for 5 minutes. The media was aspirated, and the remaining pellet was resuspended in 1x HBSS with 20 mM HEPES and 1% DMSO to achieve 1.33x10^6cells/ml. This cell suspension was then dispensed at 3 μl/well to the 1536 well plates (Greiner Bio One part 789072) at a density of 4,000 cells/well. Measurements of fluorescence intensity (λex = 470 nm, λem = 535 nm) were made using a FLIPR (Molecular Devices FLIPR Tetra). A read of basal fluorescence values was made (5s) prior to addition of compounds or controls (30 nl). In both ‘agonist’ and ‘antagonist mode’, the total assay volume was 6μl (1% DMSO). […] Ligand performance was categorized using an algorithm based on the activity of the entire dataset to define a ‘hit-cutoff’ parameter for both agonist-mode and antagonist-mode screening. Any compound with greater percent activation than this cutoff was assigned as ‘active’ prior to titration and counter-screening. Titration assays were executed using the same reagents, protocols and detection systems, done as 10-point concentration-response curves, performed in triplicate. Counter-screening was performed using untransfected HEK293 cells for comparison with results testing the same compounds effect on cells expressing Sm.TRPMPZQ, with ATP used as the positive control. For each compound, activity was plotted against compound concentration and data were fitted with a sigmoidal function. In order to be considered a hit at this stage a compound must achieve a EC50<5 μM for agonists and IC50 <5 μM for antagonists. All compounds selected for titration were subjected to LC-MS analysis to confirm mass and sample purity. ChemAxon (https://www.chemaxon.com) academic licensing was provided for the use of Instant JChem (ver. 15.10.12.0) to perform compound mining of the libraries utilized in this effort.

schistosomes = tested on: schistosomes; parameters: method as in PMID 27128493; details: read-out: IC50 in phenotypic assays; cited from earlier work
Sm.TRPMPZQ [2] = target: T1, Sm.TRPMPZQ (Schistosoma mansoni, UniProt A0A5K4F0X5); test: cell-based; details: for Emax: HEK293
T1 sequence (A0A5K4F0X5 entry or part of it): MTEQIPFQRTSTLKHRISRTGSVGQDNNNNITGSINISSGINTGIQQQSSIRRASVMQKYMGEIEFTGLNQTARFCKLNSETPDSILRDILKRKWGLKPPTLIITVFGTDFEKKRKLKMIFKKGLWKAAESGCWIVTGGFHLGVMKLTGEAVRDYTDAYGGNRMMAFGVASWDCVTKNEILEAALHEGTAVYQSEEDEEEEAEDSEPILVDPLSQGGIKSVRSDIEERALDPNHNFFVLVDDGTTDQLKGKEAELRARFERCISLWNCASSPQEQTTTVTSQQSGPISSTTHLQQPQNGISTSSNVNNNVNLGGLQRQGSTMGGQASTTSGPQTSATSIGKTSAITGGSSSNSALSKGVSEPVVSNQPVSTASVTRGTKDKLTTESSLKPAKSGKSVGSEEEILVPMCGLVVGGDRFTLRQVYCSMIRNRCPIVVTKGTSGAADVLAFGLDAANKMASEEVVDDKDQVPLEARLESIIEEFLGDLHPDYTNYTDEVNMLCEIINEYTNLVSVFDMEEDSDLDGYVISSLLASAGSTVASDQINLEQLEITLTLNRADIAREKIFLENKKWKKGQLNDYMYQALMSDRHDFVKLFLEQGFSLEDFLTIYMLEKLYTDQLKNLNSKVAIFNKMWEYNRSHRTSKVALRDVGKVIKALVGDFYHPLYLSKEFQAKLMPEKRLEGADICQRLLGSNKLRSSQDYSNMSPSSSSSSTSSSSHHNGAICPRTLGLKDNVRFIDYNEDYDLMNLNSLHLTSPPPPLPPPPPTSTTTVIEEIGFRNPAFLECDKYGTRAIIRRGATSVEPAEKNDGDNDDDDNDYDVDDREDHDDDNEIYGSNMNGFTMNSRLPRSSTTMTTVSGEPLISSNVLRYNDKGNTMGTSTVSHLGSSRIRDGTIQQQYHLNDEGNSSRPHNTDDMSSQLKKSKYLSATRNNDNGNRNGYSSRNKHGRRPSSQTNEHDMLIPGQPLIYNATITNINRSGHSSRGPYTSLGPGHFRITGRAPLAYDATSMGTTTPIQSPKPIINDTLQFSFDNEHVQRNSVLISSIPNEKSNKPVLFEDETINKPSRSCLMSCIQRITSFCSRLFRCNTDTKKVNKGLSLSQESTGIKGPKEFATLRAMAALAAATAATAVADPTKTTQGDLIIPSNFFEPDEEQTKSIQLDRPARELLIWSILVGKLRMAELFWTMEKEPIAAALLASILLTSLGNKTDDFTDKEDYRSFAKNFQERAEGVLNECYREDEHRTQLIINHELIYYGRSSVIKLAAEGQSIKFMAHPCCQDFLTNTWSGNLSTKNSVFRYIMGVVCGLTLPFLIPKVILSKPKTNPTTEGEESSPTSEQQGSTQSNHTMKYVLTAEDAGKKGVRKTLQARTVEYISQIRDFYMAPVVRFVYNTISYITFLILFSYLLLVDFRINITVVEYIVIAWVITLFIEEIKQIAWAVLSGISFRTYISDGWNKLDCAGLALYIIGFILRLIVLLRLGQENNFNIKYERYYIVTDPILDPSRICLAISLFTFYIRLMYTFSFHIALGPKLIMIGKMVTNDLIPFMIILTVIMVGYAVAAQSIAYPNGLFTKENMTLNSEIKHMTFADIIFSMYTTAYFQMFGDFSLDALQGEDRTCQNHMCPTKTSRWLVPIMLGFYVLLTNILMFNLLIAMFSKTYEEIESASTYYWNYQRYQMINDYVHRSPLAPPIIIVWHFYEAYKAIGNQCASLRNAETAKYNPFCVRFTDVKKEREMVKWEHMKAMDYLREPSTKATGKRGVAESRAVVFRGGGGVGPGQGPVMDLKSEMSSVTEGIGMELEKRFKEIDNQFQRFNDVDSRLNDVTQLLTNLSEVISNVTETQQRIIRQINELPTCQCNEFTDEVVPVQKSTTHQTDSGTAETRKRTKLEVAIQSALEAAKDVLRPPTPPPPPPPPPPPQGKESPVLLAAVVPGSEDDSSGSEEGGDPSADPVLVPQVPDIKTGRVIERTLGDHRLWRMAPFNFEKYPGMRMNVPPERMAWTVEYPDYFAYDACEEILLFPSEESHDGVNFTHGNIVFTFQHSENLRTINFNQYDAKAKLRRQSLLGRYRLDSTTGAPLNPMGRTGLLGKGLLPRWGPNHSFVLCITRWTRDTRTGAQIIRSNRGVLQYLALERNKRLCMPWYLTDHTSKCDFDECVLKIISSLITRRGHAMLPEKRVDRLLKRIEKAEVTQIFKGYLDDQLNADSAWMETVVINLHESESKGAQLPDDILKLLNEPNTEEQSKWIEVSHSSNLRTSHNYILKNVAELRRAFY
Experimental: as §1, with “This cell suspension was then dispensed at 3 μl/well to the 1536 well plates (Greiner Bio One part 789072) at a density of 4,000 cells/well. Measurements of fluorescence intensity (λex = 470 nm, λem = 535 nm) were made using a FLIPR (Molecular Devices FLIPR Tetra).” left out, “Any compound with greater percent activation than this cutoff was assigned as ‘active’ prior to titration and counter-screening.” left out, “function.” for “function. In order to be considered a hit at this stage a compound must achieve a EC50<5 μM for agonists and IC50 <5 μM for antagonists. All compounds selected for titration were subjected to LC-MS analysis to confirm mass and sample purity. ChemAxon (https://www.chemaxon.com) academic licensing was provided for the use of Instant JChem (ver. 15.10.12.0) to perform compound mining of the libraries utilized in this effort.”

Sm.TRPMPZQ[R1514A] = test: Ca2+ signal in cells expressing the binding pocket mutant; type: cell-based, Schistosoma mansoni
Sm.TRPMPZQ [3] = target: T1, Sm.TRPMPZQ; details: confocal Ca2+ imaging; cited from earlier work

With COc1ccc(-c2nnc3ccc(-c4cccc(C(C)C)c4)cn23)cc1OC [AG1, 3-(3,4-Dimethoxyphenyl)-6-(3-propan-2-ylphenyl)-[1,2,4]triazolo[4,3-a]pyridine] the “effect on adult worms ex vivo” value (adult schistosome worms; agonist alone) was “evoked a sustained contraction”, the EC50 ([1]; S2 Table) was 10300 nM and the “HEK ANT Averaged Max % Response” value ([1]; S2 Table) was 64.2957%. The IC50 (schistosomes) was roughly 1600 nM, the Emax (Sm.TRPMPZQ [2]; S2 Table, antagonist mode titration, read-out: Sm.TRPMPZQ Averaged Max % Response) was 109% and the EC50 (Sm.TRPMPZQ [2]; S2 Table, 10-point titration in triplicate, unit inferred, read-out: Sm.TRPMPZQ ANT Final EC50) was 571 nM. The “Sm.TRPMPZQ ANT Hill Slope” value (Sm.TRPMPZQ [2]; S2 Table, titration) was 2.322 and the “Ca2+ elevation at binding site mutant” value (Sm.TRPMPZQ[R1514A]) was “ablated AG1 activity”.
For Cc1onc(-c2ccccc2)c1C(=O)N1CCN(C2c3ccccc3-c3ccccc32)CC1 [ANT1, 1-(9H-fluoren-9-yl)-4-(5-methyl-3-phenyl-1,2-oxazole-4-carbonyl)piperazine], the “recovery of worms in continued presence of PZQ” value (adult schistosome worms; 50μM, PZQ 250 nM, 24 hours, compared to PZQ alone) was “enhanced recovery”, the “effect on worm motility” value (adult schistosome worms; applied alone to intact worms) was “did not change worm motility” and the EC50 ([1]; S3 Table) was greater than 12400 nM. For the same compound, the “HEK ANT Averaged Max % Response” value ([1]; S3 Table) was 43.1011%, the Emax (Sm.TRPMPZQ [2]; S3 Table, titration, read-out: Sm.TRPMPZQ ANT Averaged Max % Response) was 105% and the IC50 (Sm.TRPMPZQ [2]; read-out: IC50, block of PZQ-evoked Ca2+ signals) was 1300 ± 300 nM.
For O=C(C1CCCCC1)N1CC(=O)N2CCc3ccccc3C2C1 (centres unmarked) [PZQ, praziquantel, reference compound], the “ΔF/F, amplitude of Ca2+ transient” value (Sm.TRPMPZQ [3]) is given as 12.3±2.1, the EC50 ([1]; S2 Table) is given as greater than 12400 nM and the “HEK ANT Averaged Max % Response” value ([1]; S2 Table, listed as SR-01000003100-3) is given as 20.9575%. For the same compound, the “HEK ANT Averaged Max % Response” value ([1]; S2 Table, listed as SR-01000003100-19) was 9.578%, the “Sm.TRPMPZQ ANT Hill Slope” value (Sm.TRPMPZQ [2]; S2 Table, titration, listed as SR-01000003100-3) was 1.74 and the “Ca2+ elevation at binding site mutant” value (Sm.TRPMPZQ[R1514A]) was “did not elevate Ca^2+”.
